Results on 11 compounds are retold here after ChEMBL document CHEMBL1155915, “Anticonvulsant activity of some xanthone derivatives” (Bioorg Med Chem, 2008).

The source made the active and inactive calls. No cut-off for these calls is given here.

In data set [1] the test system is Mus musculus. The experiment in a line: Anticonvulsant activity against maximal electroshock-induced seizures in mouse at 300 mg/kg, ip after 0.5 hrs. The data set is classed as functional, organism-based. The arrangement: dose 300 mg/kg. In general terms: Protection in the maximal electroshock model is a classic sign of anticonvulsant action.
Data set [2] relates to Mus musculus. The experiment in a line: Anticonvulsant activity against scMet-induced seizures in mouse at 100 mg/kg, ip after 0.5 hrs. It counts as functional, organism-based. The arrangement: dose 100 mg/kg.
Data set [3] deals with Mus musculus. Briefly: Anticonvulsant activity against maximal electroshock-induced seizures in mouse at 30 mg/kg, ip after 4 hrs. The data set is classed as functional, organism-based. Set-up: dose 30 mg/kg.
Data set [4] deals with Mus musculus. Briefly: Anticonvulsant activity against maximal electroshock-induced seizures in mouse at 30 mg/kg, ip after 0.5 hrs. The data set is classed as functional, organism-based. Set-up: dose 30 mg/kg.
Data set [5] deals with Mus musculus. Briefly: Anticonvulsant activity against maximal electroshock-induced seizures in mouse at 100 mg/kg, ip after 4 hrs. The data set is classed as functional, organism-based. The arrangement: dose 100 mg/kg.
For data set [6], the system named is Mus musculus. The experiment in a line: Anticonvulsant activity against scMet-induced seizures in mouse at 100 mg/kg, ip after 4 hrs. It counts as functional, organism-based. The arrangement: dose 100 mg/kg.
In data set [7] the test system is Mus musculus. Briefly: Anticonvulsant activity against maximal electroshock-induced seizures in mouse at 100 mg/kg, ip after 0.5 hrs. It counts as functional, organism-based. The arrangement: dose 100 mg/kg.
For data set [8], the system named is Mus musculus. Briefly: Anticonvulsant activity against scMet-induced seizures in mouse at 30 mg/kg, ip after 0.5 hrs. It counts as functional, organism-based. Set-up: dose 30 mg/kg.
The subject of data set [9] is Mus musculus. The experiment in a line: Anticonvulsant activity against maximal electroshock-induced seizures in mouse at 300 mg/kg, ip after 4 hrs. The data set is classed as functional, organism-based. Set-up: dose 300 mg/kg.
Data set [10] relates to Mus musculus. Briefly: Neurotoxicity in mouse at 300 mg/kg, ip after 0.5 hrs by rotarod test. The data set is classed as toxicity, organism-based. Set-up: dose 300 mg/kg, route intraperitoneal. As to conditions: in vivo. A general note: In the rotarod test animals must keep their balance on a rotating rod.
For data set [11], the system named is Mus musculus. Briefly: Anticonvulsant activity against scMet-induced seizures in mouse at 300 mg/kg, ip after 0.5 hrs. The data set is classed as functional, organism-based. The arrangement: dose 300 mg/kg.
Data set [12] deals with Mus musculus. The experiment in a line: Anticonvulsant activity against scMet-induced seizures in mouse at 300 mg/kg, ip after 4 hrs. The arrangement: dose 300 mg/kg. It counts as functional, organism-based.
Data set [13] concerns Mus musculus. The experiment in a line: Neurotoxicity in mouse at 300 mg/kg, ip after 4 hrs by rotarod test. The data set is classed as toxicity, organism-based. The arrangement: dose 300 mg/kg, route intraperitoneal. To be noted: in vivo.
Data set [14] deals with Mus musculus. Briefly: Anticonvulsant activity against scMet-induced seizures in mouse at 30 mg/kg, ip after 4 hrs. It counts as functional, organism-based. Set-up: dose 30 mg/kg.
The test system of data set [15] is Mus musculus. Briefly: Neurotoxicity in mouse at 30 mg/kg, ip after 0.5 hrs by rotarod test. The data set is classed as toxicity, organism-based. Set-up: dose 30 mg/kg, route intraperitoneal. As to conditions: in vivo.
In data set [16] the test system is Mus musculus. Briefly: Neurotoxicity in mouse at 30 mg/kg, ip after 4 hrs by rotarod test. The data set is classed as toxicity, organism-based. The arrangement: dose 30 mg/kg, route intraperitoneal. To be noted: in vivo.
Data set [17] relates to Mus musculus. Briefly: Neurotoxicity in mouse at 100 mg/kg, ip after 4 hrs by rotarod test. The arrangement: dose 100 mg/kg, route intraperitoneal. As to conditions: in vivo. It counts as toxicity, organism-based.
In data set [18] the test system is Mus musculus. The experiment in a line: Neurotoxicity in mouse at 100 mg/kg, ip after 0.5 hrs by rotarod test. It counts as toxicity, organism-based. The arrangement: dose 100 mg/kg, route intraperitoneal. As to conditions: in vivo.

As for `C[C@@H](O)CNCc1ccc2oc3cc(Cl)ccc3c(=O)c2c1`, the result in the data set on Mus musculus [1], with Mus musculus [3], in the data set on Mus musculus [5] and in the data set on Mus musculus [7] was Active. The outcome in the data set with Mus musculus [2], in the data set on Mus musculus [4], with Mus musculus [6], in the data set on Mus musculus [8], in the data set on Mus musculus [9] and in the data set on Mus musculus [11] was inactive. Also, the outcome in the data set on Mus musculus [12] and in the data set with Mus musculus [14] was inactive. Moreover, the Neurotoxicity result in the data set with Mus musculus [10] and with Mus musculus [13] was “Neurotoxic” in each case.
With `CC(CCl)N(C)Cc1ccc2oc3cc(Cl)ccc3c(=O)c2c1.Cl` (stereo unspecified), in the data set with Mus musculus [1], the result was Active. Further, the outcome in the data set with Mus musculus [2], with Mus musculus [3], in the data set with Mus musculus [4], with Mus musculus [5], with Mus musculus [6] and in the data set with Mus musculus [8] was inactive. Further, the result with Mus musculus [9], with Mus musculus [11], with Mus musculus [12] and in the data set on Mus musculus [14] was inactive. The Neurotoxicity result with Mus musculus [10] was “Neurotoxic”; with Mus musculus [13] it was “Neurotoxic”; with Mus musculus [15], “Not Active”; in the data set on Mus musculus [16] it was “Not Active”.
Turning to `CCOC(=O)CNC(=O)c1ccc2oc3ccccc3c(=O)c2c1`, the Neurotoxicity result in the data set with Mus musculus [17], in the data set on Mus musculus [10], with Mus musculus [13], in the data set on Mus musculus [15], in the data set on Mus musculus [18] and in the data set with Mus musculus [16] was “Not Active” each time. Besides, the outcome with Mus musculus [1], with Mus musculus [2], with Mus musculus [3], in the data set on Mus musculus [4], with Mus musculus [5] and with Mus musculus [6] was inactive. Further, the result in the data set on Mus musculus [7], in the data set on Mus musculus [8], with Mus musculus [9], with Mus musculus [11], in the data set on Mus musculus [12] and with Mus musculus [14] was inactive.
Regarding `O=c1c2ccc(Cl)cc2oc2ccc(CNCCO)cc12`, the Neurotoxicity entry in the data set on Mus musculus [17], in the data set with Mus musculus [13] and in the data set on Mus musculus [16] was “Not Active” each time. Further, the outcome with Mus musculus [1] and in the data set with Mus musculus [9] was Active. Further, the outcome with Mus musculus [2], in the data set with Mus musculus [3], in the data set on Mus musculus [4], in the data set on Mus musculus [5], in the data set with Mus musculus [6] and in the data set on Mus musculus [8] was inactive. In addition, the outcome with Mus musculus [11], in the data set on Mus musculus [12] and with Mus musculus [14] was inactive.
On to `CC(CO)NC(=O)c1ccc2oc3cc(Cl)ccc3c(=O)c2c1` (racemic), for which the Neurotoxicity entry with Mus musculus [17], in the data set on Mus musculus [10], with Mus musculus [13], in the data set on Mus musculus [18] and with Mus musculus [16] was “Not Active” throughout. For the same compound, the outcome in the data set with Mus musculus [1], in the data set with Mus musculus [2], in the data set on Mus musculus [3], in the data set on Mus musculus [4], with Mus musculus [5] and with Mus musculus [6] was inactive. The outcome with Mus musculus [7], with Mus musculus [8], in the data set with Mus musculus [9], in the data set with Mus musculus [11], with Mus musculus [12] and in the data set on Mus musculus [14] was inactive.
Turning to `C[C@@H](CO)N(C)Cc1ccc2oc3cc(Cl)ccc3c(=O)c2c1`, the Neurotoxicity entry with Mus musculus [17] is reported as “Not Active”; in the data set with Mus musculus [10] it was “Neurotoxic”; with Mus musculus [13] it was “Neurotoxic”. In addition, the result in the data set with Mus musculus [1], in the data set with Mus musculus [7] and in the data set on Mus musculus [9] was Active. Moreover, the outcome in the data set on Mus musculus [2], in the data set on Mus musculus [3], with Mus musculus [4], with Mus musculus [6], in the data set with Mus musculus [8] and in the data set on Mus musculus [11] was inactive. Moreover, the outcome in the data set on Mus musculus [12] and with Mus musculus [14] was inactive.
For `O=c1c2ccc(Cl)cc2oc2ccc(CNCCCCCO)cc12`, the figures for the Neurotoxicity entry in the data set on Mus musculus [17], with Mus musculus [10] and in the data set with Mus musculus [16] were “Not Active”, “Neurotoxic” and “Not Active”, respectively. The result with Mus musculus [1] and in the data set on Mus musculus [9] was Active. Besides, the result in the data set with Mus musculus [2], with Mus musculus [3], in the data set with Mus musculus [4], in the data set with Mus musculus [5], in the data set on Mus musculus [6] and with Mus musculus [8] was inactive. Besides, the result in the data set on Mus musculus [11], in the data set on Mus musculus [12] and in the data set on Mus musculus [14] was inactive.
For the compound `CC[C@H](CO)NCc1ccc2oc3cc(Cl)ccc3c(=O)c2c1`, the result with Mus musculus [1] and with Mus musculus [9] was Active. Also, the result in the data set on Mus musculus [2], in the data set on Mus musculus [3], in the data set with Mus musculus [4], in the data set with Mus musculus [5], with Mus musculus [6] and in the data set on Mus musculus [8] was inactive. Further, the result with Mus musculus [11], in the data set on Mus musculus [12] and with Mus musculus [14] was inactive. For the same compound, the Neurotoxicity result in the data set on Mus musculus [10] is recorded as “Neurotoxic”; in the data set on Mus musculus [15] it was “Not Active”; with Mus musculus [16] it was “Not Active”.
For `CN(CCO)Cc1ccc2oc3cc(Cl)ccc3c(=O)c2c1`, the Neurotoxicity result is given as “Not Active” in the data set with Mus musculus [17]; “Neurotoxic” with Mus musculus [10]; “Neurotoxic” in the data set with Mus musculus [13]; “Not Active” with Mus musculus [15]; “Not Active” in the data set with Mus musculus [16]. The outcome in the data set with Mus musculus [1], in the data set with Mus musculus [2], with Mus musculus [3], in the data set on Mus musculus [4], in the data set with Mus musculus [5] and in the data set with Mus musculus [6] was inactive. Also, the result in the data set with Mus musculus [8], in the data set with Mus musculus [11], in the data set on Mus musculus [12] and in the data set with Mus musculus [14] was inactive.
As to `C[C@H](O)CNCc1ccc2oc3cc(Cl)ccc3c(=O)c2c1`, the Neurotoxicity entry in the data set on Mus musculus [17], in the data set with Mus musculus [15] and in the data set with Mus musculus [16] was “Not Active” in each case. Besides, the result in the data set with Mus musculus [1], in the data set with Mus musculus [3], in the data set with Mus musculus [5] and in the data set with Mus musculus [7] was Active. Further, the result in the data set on Mus musculus [2], in the data set with Mus musculus [4], in the data set on Mus musculus [6], in the data set with Mus musculus [8], in the data set on Mus musculus [9] and with Mus musculus [11] was inactive. Further, the result in the data set on Mus musculus [12] and in the data set with Mus musculus [14] was inactive.
Consider `O=C(N[C@@H]1CCCC[C@H]1O)c1ccc2oc3ccccc3c(=O)c2c1` (racemic), for which the Neurotoxicity result in the data set on Mus musculus [17], with Mus musculus [13], with Mus musculus [15], in the data set with Mus musculus [18] and in the data set on Mus musculus [16] was “Not Active” each time. Moreover, the outcome in the data set with Mus musculus [1], in the data set with Mus musculus [2], in the data set on Mus musculus [3], in the data set on Mus musculus [4], with Mus musculus [6] and in the data set with Mus musculus [7] was inactive. The result with Mus musculus [8], with Mus musculus [9], with Mus musculus [11], with Mus musculus [12] and with Mus musculus [14] was inactive.
